In patent US12391657B2, “Small molecules that bind and/or modulate differentforms of tau oligomers” (The Board of Regents of the University of Texas System, priority 2019, dated 2025):
“Also recorded” adds a separate entry of the source.

Tests used:
[1] = cited from earlier work
[2] = biological target: T1, recombinant tau oligomers (TauO) (Homo sapiens, UniProt P10636); test: Dot blot of recombinant tau oligomers with and without compounds; assay type: biochemical; conditions: curcumin
T1 construct: made in house
Experimental: The dot blot assay was performed as previously described (Lasagna-Reeves, Castillo-Carranza et al. 2010), to detect tau oligomers in the absence and presence of small molecules. Briefly, 1.5 μl of each end-product reaction was applied onto nitrocellulose membranes and then blocked with 10% nonfat milk in TBS-T overnight at 4° C. Next day, membranes were probed with T22 (1:250) for immunoreactivity with tau oligomers and Tau5 (1:10000) for total tau, diluted in 5% nonfat milk for 1 hour at RT. Membranes were then washed three time with TBS-T and incubated with horseradish peroxidase-conjugated IgG anti-rabbit (1:10000) and anti-mouse (1:10000) secondary antibodies to detect, T22 and Tau5, respectively. Blots were then washed three times in TBS-T and exposed to ECL plus (GE Healthcare) was used for signal detection. Densitometric analysis of each band was quantified using Image J.
Compounds were dissolved in ETOH 75%/DMSO (5:1) at a final concentration of 5 mM and diluted in 1× PBS or ddH2O for incubation or toxicity assay (final concentration 5 μM). […]
Densitometric analysis of each band was quantified using Image J and analyzed by two-way ANOVA followed by Dunnett's multiple comparisons test, performed using GraphPad Prism 6.01.

[3] = biological target: T1, recombinant tau oligomers (TauO); test: Western blot of recombinant tau oligomers with and without compounds; assay type: biochemical; conditions: curcumin 5× and 10×, oligomerization conditions
Experimental: Pre-cast NuPAGE 4-12% Bis-Tris Gels for SDS-PAGE (Introvigen) were loaded with 3 μg of recombinant tau for each sample per well along with molecular weight marker. After being separated by electrophoresis, proteins were transferred to nitrocellulose membranes. Membranes were then blocked with 10% nonfat milk in Tris-buffered saline with very low tween 0.01% (TBS-T) overnight at 4° C. The next day membranes were probed with T22 (1:250) for tau oligomers and tau5 (1:10000) for total tau, diluted in 5% nonfat milk for 1 hour at RT. Membranes were then incubated with horseradish peroxidase-conjugated IgG anti-rabbit (1:10000) and anti-mouse (1:10000) secondary antibodies to detect, T22 and Tau5, respectively. ECL plus (GE Healthcare) was used for signal detection. Densitometric analysis of each band was quantified using Image J and analyzed by one-way ANOVA.
Recombinant tau protein (tau-441 (2N4R) MW 45.9 kDa) was expressed and purified as described (Margittai and Langen 2004, Margittai and Langen 2006). The tau pellet was treated with 8M urea followed by overnight dialysis against 1× phosphate-buffered saline (PBS) pH 7.4. Tau concentration was measured using bicinchoninic acid protein assay (Micro BCA kit, Pierce) and normalized to 1 mg/ml by adding 1× PBS. Aliquots of tau monomer in PBS were stored at −20° C. […]

[4] = test system: SH-SY5Y human neuroblastoma cells; test: MTT viability of SH-SY5Y cells exposed to TauO pre-incubated with compound; assay type: cell-based; conditions: 2 μM TauO; curcumin final concentration 10 μM
Experimental: Human neuroblastoma SH-SY5Y cells were maintained in Dulbecco's modified Eagle's medium (DMEM) and grown to confluence in 96-well plates. […] Cells viability was corrected by the vehicle background. All measurements were performed in triplicate. The cytotoxic effect was determined using 3-(4,5-dimethylthiazol-2-yl)-2,5-diphenyltetrazolium bromide (MTT) assay for assessing cell viability following manufacturers' instructions. Optical density (OD) was measured at 490 nm with POLARstar OMEGA plate reader (BMG Labtechnologies). Cell viability was calculated as the percentage of the OD value of treated cells compared with untreated controls, according to the following equation: Viability=(OD SAMPLE/OD CONTROL)×100. […]
Human neuroblastoma SH-SY5Y cells were maintained in Dulbecco's modified Eagle's medium (DMEM) and grown to confluence in 96-well plates. […] The cytotoxic effect was determined using 3-(4,5-dimethylthiazol-2-yl)-2,5-diphenyltetrazolium bromide (MTT) assay for assessing cell viability following manufacturer's instructions. Optical density (OD) was measured at 490 nm with POLARstar OMEGA plate reader (BMG Labtechnologies). Cell viability was calculated as the percentage of the OD value of treated cells compared with untreated controls, according to the following equation: Viability=(OD SAMPLE/OD CONTROL)×100. […]

[5] = in vivo; cited from earlier work

T1 sequence (P10636 1-441 isoform P10636-8): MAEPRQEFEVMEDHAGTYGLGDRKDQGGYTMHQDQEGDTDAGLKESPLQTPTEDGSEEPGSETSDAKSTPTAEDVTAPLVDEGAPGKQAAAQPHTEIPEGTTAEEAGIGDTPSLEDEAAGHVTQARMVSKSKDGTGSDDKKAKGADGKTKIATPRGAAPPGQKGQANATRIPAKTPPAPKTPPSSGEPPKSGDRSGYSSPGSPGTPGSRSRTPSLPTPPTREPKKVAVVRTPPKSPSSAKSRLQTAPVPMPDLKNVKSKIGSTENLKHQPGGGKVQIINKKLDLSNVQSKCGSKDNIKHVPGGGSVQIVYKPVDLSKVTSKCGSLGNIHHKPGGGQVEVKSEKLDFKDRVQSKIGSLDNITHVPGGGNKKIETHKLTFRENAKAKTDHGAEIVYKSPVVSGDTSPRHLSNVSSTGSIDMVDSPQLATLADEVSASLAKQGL

COc1cc(/C=C/C(=O)CC(=O)/C=C/c2ccc(O)c(OC)c2)ccc1O [curcumin]
solubility in aqueous media [1]: poor solubility in aqueous buffers
oligomeric tau level, dot blot [2]: decreased levels of oligomeric tau; also recorded: significant decrease in oligomers
aggregation state of preformed tau oligomers, Western blot (T22, Tau 5, Tau 13) [3]: promoting the formation of larger tau aggregates
aggregation state of preformed tau oligomers, Western blot (T22, Tau 5, Tau 13) ([3]; listed as Curcumin): alters the aggregation states of preformed tau oligomers
viability of SH-SY5Y cells exposed to TauO pre-incubated with curcumin [4]: significantly higher cells viability when compared to TauO alone; also recorded: rescued cells from TauO-induced toxicity
bioavailability [5]: low brain bioavailability following oral administration
